From US20120015925A1, “NOVEL BENZOTHIAZEPINE AND BENZOTHIEPINE COMPOUNDS” (ASAHI KASEI PHARMA CORPORATION, priority 2004, published 2012) come the findings set out here.

One experiment concerns the target T1, human IBAT (Homo sapiens, UniProt Q12908).
T1 sequence (Q12908 1-348): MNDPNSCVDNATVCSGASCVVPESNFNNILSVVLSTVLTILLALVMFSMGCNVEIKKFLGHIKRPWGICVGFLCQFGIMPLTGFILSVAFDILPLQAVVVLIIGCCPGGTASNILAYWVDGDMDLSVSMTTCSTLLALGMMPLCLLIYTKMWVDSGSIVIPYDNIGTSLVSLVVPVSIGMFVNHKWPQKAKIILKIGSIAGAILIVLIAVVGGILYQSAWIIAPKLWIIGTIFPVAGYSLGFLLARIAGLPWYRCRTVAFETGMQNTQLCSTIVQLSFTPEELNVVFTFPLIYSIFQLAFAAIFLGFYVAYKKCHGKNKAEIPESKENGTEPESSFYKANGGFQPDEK
The experiment in a line: In vitro assay using Cos 7 cells, transiently expressed human IBAT. The format is cell-based. Particulars: [3H]-taurocholate 8 μM uptake, 37° C., 60 minutes. Here is the method:
In the present Test Example, an in vitro assay of compounds using Cos 7 cells as to inhibitory activity on transiently expressed human IBAT or rat IBAT transporter was performed according to the method described in Am. J. Physiol., 274, G157-169.
That is, […] cells/well of Cos 7 cells were seeded in a 24-well plate, and after one day, the cells were transfected with 0.3 μg/well of cDNA of human IBAT or rat IBAT using FuGENE6 (supplied from Roche). After culturing for one day after the transfection, the cells were washed once with the assay buffer, i.e., Hanks buffer containing 25 mM glucose and 10 mM HEPES (pH 7.4). The assay buffer was then replaced with the assay buffer containing the test compound. [^3H]-Taurocholate at a final concentration of 8 μM was added thereto and incubated at 37° C. for 60 minutes so that [^3H]-taurocholate was taken into Cos 7 cells by the action of human IBAT or rat IBAT. The cells were washed twice with the assay buffer containing 1 mM taurocholate, and subsequently lysed with 0.2 M NaOH to stop the reaction. The cell lysate was added to 4 mL of liquid scintillation cocktail, which was then thoroughly vortexed. Then the radioactivity was measured using the liquid scintillation counter.
One may read the IC50 as the midpoint of a concentration-inhibition curve. Take `CCCCC1(CCCC)CS(=O)(=O)c2ccc(N(C)C)cc2C(c2cccc(NC(=S)Nc3ccc(C[N+](C)(CCC)CCC)cc3)c2)N1` (racemic) [EXAMPLE 3426]: the IC50 was determined as 58 nM.
Same read-out and setting: to `CCCCC1(CCCC)CS(=O)(=O)c2ccc(N(C)C)cc2C(c2cccc(NC(=S)Nc3ccc(C[N+](C)(C)Cc4cccs4)cc3)c2)N1` (racemic) [EXAMPLE 3449] belongs 55 nM; to `CCCCC1(CCCC)CS(=O)(=O)c2ccc(N(C)C)cc2C(c2cccc(NC(=S)Nc3ccc(C[N+](C)(C)CC(C)O)cc3)c2)N1` (racemic) [EXAMPLE 3454], 68 nM; to `CCCCC1(CCCC)CS(=O)(=O)c2ccc(N(C)C)cc2C(c2cccc(NC(=S)Nc3ccc(C[N+](C)(C)CCN(C)C)cc3)c2)N1` (racemic) [EXAMPLE 3506], 127 nM.
The compound `CCCCC1(CCCC)CS(=O)(=O)c2ccc(N(C)C)cc2C(c2cccc(NC(=S)Nc3ccc(C[N+]4(C)CCCCC4)cc3)c2)N1` (racemic) [EXAMPLE 3587] showed an IC50 of 70 nM.
Turning to `CCCCC1(CCCC)CS(=O)(=O)c2ccc(N(C)C)cc2C(c2cccc(NC(=S)Nc3ccc(C[N+]45CCC(CC4)C(O)C5)cc3)c2)N1` (racemic) [EXAMPLE 3697], it took 69 nM to reach half-maximal inhibition (IC50).
For `CCCCC1(CCCC)CS(=O)(=O)c2ccc(N(C)C)cc2C(c2cccc(NC(=S)Nc3ccc(C[n+]4ccccc4)cc3)c2)N1` (racemic) [EXAMPLE 3708], 70 nM corresponded to half-maximal inhibition (IC50).
As for `CCCCC1(CCCC)CS(=O)(=O)c2ccc(N(C)C)cc2C(c2cccc(NC(=S)Nc3ccc(C[n+]4cccc(CC)c4)cc3)c2)N1` (racemic) [EXAMPLE 3722], the IC50 stood at 39 nM.
Compound `CCCCC1(CCCC)CS(=O)(=O)c2ccc(N(C)C)cc2C(c2cccc(NC(=S)Nc3ccc(C[n+]4cccc(-c5cccs5)c4)cc3)c2)N1` (racemic) [EXAMPLE 3726] yielded an IC50 of 73 nM.
Compound `CCCCC1(CCCC)CS(=O)(=O)c2ccc(N(C)C)cc2C(c2cccc(NC(=S)Nc3ccc(C[n+]4cc(C)cc(-c5ccccc5)c4)cc3)c2)N1` (racemic) [EXAMPLE 3730] displayed an IC50 of 84 nM.
The same measure, in the same setting: to `CCCCC1(CCCC)CS(=O)(=O)c2ccc(N(C)C)cc2C(c2cccc(NC(=S)Nc3ccc(C[n+]4cccc(C(=O)c5ccccc5)c4)cc3)c2)N1` (racemic) [EXAMPLE 3748] belongs 81 nM.
`CCCCC1(CCCC)CS(=O)(=O)c2ccc(N(C)C)cc2C(c2cccc(NC(=S)Nc3ccc(C[n+]4ccc(NC=O)cc4)cc3)c2)N1` (racemic) [EXAMPLE 3754]: it took 92 nM to reach half-maximal inhibition (IC50).
As to `CCCCC1(CCCC)CS(=O)(=O)c2ccc(N(C)C)cc2C(c2cccc(NC(=S)Nc3ccc(C[n+]4ccc(CCc5ccncc5)cc4)cc3)c2)N1` (racemic) [EXAMPLE 3764], the half-inhibitory concentration (IC50) was determined as 80 nM.
Still for that read-out and setting: to `CCCCC1(CCCC)CS(=O)(=O)c2ccc(N(C)C)cc2C(c2cccc(NC(=S)Nc3ccc(C[n+]4ccc(N(C)C)cc4)cc3)c2)N1` (racemic) [EXAMPLE 4210] belongs 100 nM; to `CCCCC1(CCCC)CS(=O)(=O)c2ccc(N(C)C)cc2C(c2cccc(NC(=S)Nc3ccc(C[n+]4ccc(C(C)O)cc4)cc3)c2)N1` (racemic) [EXAMPLE 5411], 97 nM; to `CCCCC1(CCCC)CS(=O)(=O)c2ccc(N(C)C)cc2C(c2cccc(NC(=S)Nc3ccc(C[n+]4cc(O)cc(Cl)c4)cc3)c2)N1` (racemic) [EXAMPLE 5417], 26 nM.
`CCCCC1(CCCC)CS(=O)(=O)c2ccc(N(C)C)cc2C(c2cccc(NC(=S)NCCC[N+]3(Cc4ccccc4)CCCC(CO)C3)c2)N1` (centres unmarked) [EXAMPLE 592] yielded a half-inhibitory concentration (IC50) of 100 nM. This IC50 lies about 3.8-fold higher than the previous one.
On the same count and under the same terms, under `CCCCC1(CCCC)CS(=O)(=O)c2ccc(N(C)C)cc2C(c2cccc(NC(=S)NCCC[N+]3(Cc4ccccc4)CCC(CCO)CC3)c2)N1` (centres unmarked) [EXAMPLE 593] stands 92 nM; under `CCCCCC[N+](C)(C)Cc1ccc(NC(=S)Nc2cccc(C3NC(CCCC)(CCCC)CS(=O)(=O)c4ccc(N(C)C)cc43)c2)cc1` (centres unmarked) [EXAMPLE 3410], 68 nM.
Turning to `CCCCCCCC[N+](C)(C)Cc1ccc(NC(=S)Nc2cccc(C3NC(CCCC)(CCCC)CS(=O)(=O)c4ccc(N(C)C)cc43)c2)cc1` (centres unmarked) [EXAMPLE 3412], it took 75 nM to reach half-maximal inhibition (IC50). The IC50 values of the last two compounds are within 1.5-fold of each other.
`CCCCCCCCC[N+](C)(C)Cc1ccc(NC(=S)Nc2cccc(C3NC(CCCC)(CCCC)CS(=O)(=O)c4ccc(N(C)C)cc43)c2)cc1` (centres unmarked) [EXAMPLE 3413] registered an IC50 of 73 nM.
`CCCCCCCCCC[N+](C)(C)Cc1ccc(NC(=S)Nc2cccc(C3NC(CCCC)(CCCC)CS(=O)(=O)c4ccc(N(C)C)cc43)c2)cc1` (centres unmarked) [EXAMPLE 3414] returned an IC50 of 88 nM.
`C=CC[N+](C)(C)Cc1ccc(NC(=S)Nc2cccc(C3NC(CCCC)(CCCC)CS(=O)(=O)c4ccc(N(C)C)cc43)c2)cc1` (centres unmarked) [EXAMPLE 3429] registered a half-maximal inhibitory concentration (IC50) of 55 nM.
`C#CC[N+](C)(C)Cc1ccc(NC(=S)Nc2cccc(C3NC(CCCC)(CCCC)CS(=O)(=O)c4ccc(N(C)C)cc43)c2)cc1` (centres unmarked) [EXAMPLE 3433] registered a 50% inhibitory concentration (IC50) of 55 nM. That is a double-digit nanomolar value.
Same read-out and setting: under `CCC#CC[N+](C)(C)Cc1ccc(NC(=S)Nc2cccc(C3NC(CCCC)(CCCC)CS(=O)(=O)c4ccc(N(C)C)cc43)c2)cc1` (centres unmarked) [EXAMPLE 3434] stands 71 nM; under `CCCCC1(CCCC)CS(=O)(=O)c2ccc(N(C)C)cc2C(c2cccc(NC(=S)Nc3ccc(C[N+](C)(C)C(C)c4ccccc4)cc3)c2)N1` (centres unmarked) [EXAMPLE 3441], 85 nM; under `CCCCC1(CCCC)CS(=O)(=O)c2ccc(N(C)C)cc2C(c2cccc(NC(=S)Nc3ccc(C[N+](C)(C)CCOC(=O)c4ccccc4)cc3)c2)N1` (centres unmarked) [EXAMPLE 3558], 70 nM.
Still for that read-out and setting: under `CCCCC1(CCCC)CS(=O)(=O)c2ccc(N(C)C)cc2C(c2cccc(NC(=S)Nc3ccc(C[N+]4(CC)CCCC4)cc3)c2)N1` (centres unmarked) [EXAMPLE 3568] stands 94 nM.
For the compound `CCCCC1(CCCC)CS(=O)(=O)c2ccc(N(C)C)cc2C(c2cccc(NC(=S)Nc3ccc(C[N+]4(Cc5ccccc5)CCCCC4)cc3)c2)N1` (centres unmarked) [EXAMPLE 3593], the midpoint of inhibition, the IC50, lay at 70 nM.
`CCCCC1(CCCC)CS(=O)(=O)c2ccc(N(C)C)cc2C(c2cccc(NC(=S)Nc3ccc(C[N+]4(C)CCC(O)CC4)cc3)c2)N1` (centres unmarked) [EXAMPLE 3599]: the IC50 was determined as 54 nM. The IC50 values of the last two compounds are within 1.5-fold of each other.
Compound `CCCCC1(CCCC)CS(=O)(=O)c2ccc(N(C)C)cc2C(c2cccc(NC(=S)Nc3ccc(C[N+]4(Cc5ccccc5)CCCC(O)C4)cc3)c2)N1` (centres unmarked) [EXAMPLE 3604] came in with a half-maximal inhibitory concentration (IC50) of 45 nM. This IC50 and that of the compound before are within 1.5-fold of each other.
On the same count and under the same terms, under `CCCCC1(CCCC)CS(=O)(=O)c2ccc(N(C)C)cc2C(c2cccc(NC(=S)Nc3ccc(C[N+]45CCC(CC4)C(=O)C5)cc3)c2)N1` (centres unmarked) [EXAMPLE 3698] stands 72 nM.
On to `CCCCC1(CCCC)CS(=O)(=O)c2ccc(N(C)C)cc2C(c2cccc(NC(=S)Nc3ccc(C[n+]4ccc(CCC)cc4)cc3)c2)N1` (centres unmarked) [EXAMPLE 3711], for which the IC50 is 63 nM.
`CCCCC1(CCCC)CS(=O)(=O)c2ccc(N(C)C)cc2C(c2cccc(NC(=S)Nc3ccc(C[n+]4ccc(C(CC)CC)cc4)cc3)c2)N1` (centres unmarked) [EXAMPLE 3714] registered an IC50 of 58 nM. This IC50 and that of the compound before are within 1.5-fold of each other.
For the compound `CCCCC(CCCC)c1cc[n+](Cc2ccc(NC(=S)Nc3cccc(C4NC(CCCC)(CCCC)CS(=O)(=O)c5ccc(N(C)C)cc54)c3)cc2)cc1` (centres unmarked) [EXAMPLE 3716], half-maximal inhibition (IC50) was put at 89 nM.
Still for that read-out and setting: to `CCCCC1(CCCC)CS(=O)(=O)c2ccc(N(C)C)cc2C(c2cccc(NC(=S)Nc3ccc(C[n+]4ccc(-c5ccccc5)cc4)cc3)c2)N1` (centres unmarked) [EXAMPLE 3717] belongs 30 nM; to `CCCCC1(CCCC)CS(=O)(=O)c2ccc(N(C)C)cc2C(c2cccc(NC(=S)Nc3ccc(C[n+]4cccc(-c5ccccc5)c4)cc3)c2)N1` (centres unmarked) [EXAMPLE 3724], 69 nM; to `CCCCC1(CCCC)CS(=O)(=O)c2ccc(N(C)C)cc2C(c2cccc(NC(=S)Nc3ccc(C[n+]4cccc(Cc5ccccc5)c4)cc3)c2)N1` (centres unmarked) [EXAMPLE 3725], 52 nM.
As for `CCCCC1(CCCC)CS(=O)(=O)c2ccc(N(C)C)cc2C(c2cccc(NC(=S)Nc3ccc(C[n+]4ccc(C)c(C)c4)cc3)c2)N1` (centres unmarked) [EXAMPLE 3727], the half-inhibitory concentration (IC50) is 66 nM.
Still for that read-out and setting: under `CCCCC1(CCCC)CS(=O)(=O)c2ccc(N(C)C)cc2C(c2cccc(NC(=S)Nc3ccc(C[n+]4cc(C)cc(C)c4)cc3)c2)N1` (centres unmarked) [EXAMPLE 3729] stands 88 nM.
With `CCCCC1(CCCC)CS(=O)(=O)c2ccc(N(C)C)cc2C(c2cccc(NC(=S)Nc3ccc(C[n+]4ccc(CCCO)cc4)cc3)c2)N1` (centres unmarked) [EXAMPLE 3733], 57 nM corresponded to half-maximal inhibition (IC50).
`CCCCC1(CCCC)CS(=O)(=O)c2ccc(N(C)C)cc2C(c2cccc(NC(=S)Nc3ccc(C[n+]4ccc(C(C)=O)cc4)cc3)c2)N1` (centres unmarked) [EXAMPLE 3736] had a half-inhibitory concentration (IC50) of 50 nM.
On the same count and under the same terms, under `CCCCCCOC(=O)c1ccc[n+](Cc2ccc(NC(=S)Nc3cccc(C4NC(CCCC)(CCCC)CS(=O)(=O)c5ccc(N(C)C)cc54)c3)cc2)c1` (centres unmarked) [EXAMPLE 3750] stands 75 nM.

Staying with this experiment, now noted: [3H]-taurocholate 8 μM, 37° C., 60 minutes.
Consider `CCCCC1(CCCC)CS(=O)(=O)c2ccc(N(C)C)cc2C(c2cccc(NC(=S)Nc3ccc(C[n+]4ccccc4OCC)cc3)c2)N1` (racemic) [EXAMPLE 5415], for which half-maximal inhibition (IC50) required 44 nM.
